Data published in patent US5317024A, “Ether derivatives of alkyl piperidines and pyrrolidines as antipsychotic agents” (DuPont Merck Pharmaceutical Co., priority 1993, dated 1994).
Where a name gives a salt, the structure may show the parent alone. Read-outs that look alike come from different tables or passages of the source.

Key:
sigma receptor = sigma receptor (Cavia porcellus, UniProt Q60492); experiment: biochemical; settings: 1 nM (+)-[3H]SKF 10,047, guinea pig brain membranes, pH 7.4, 45 min, room temperature; read-out: SIGMA receptor binding Ki
Chain of sigma receptor (Q60492 whole entry): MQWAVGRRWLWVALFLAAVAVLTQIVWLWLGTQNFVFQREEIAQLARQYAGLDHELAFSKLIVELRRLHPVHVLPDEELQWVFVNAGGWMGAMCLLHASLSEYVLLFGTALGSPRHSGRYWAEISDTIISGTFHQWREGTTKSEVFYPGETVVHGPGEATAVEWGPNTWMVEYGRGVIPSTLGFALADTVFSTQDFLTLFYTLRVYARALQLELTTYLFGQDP
Experimental: (§1) Male Hartley guinea pigs (250-300 g, Charles River) were sacrificed by decapitation. […] Whole brains were homogenized (20 seconds) in 10 vol (wt/vol) of ice-cold 0.34 M sucrose with a Brinkmann Polytron (setting 8). The homogenate was centrifuged at 920 × g for 10 minutes. The supernatant was centrifuged at 47,000 × g for 20 minutes. The resulting membrane pellet was resuspended in 10 vol (original wt/vol) of 50 mM Tris HCl (pH 7.4) and incubated at 37° C. for 45 minutes to degrade and dissociate bound endogenous ligands. The membranes were then centrifuged at 47,000 × g for 20 minutes and resuspended in 50 mM Tris HCl (50 mL per brain).
After 45 minutes of incubation at room temperature, samples were filtered rapidly through Whatman GF/C. glass filters under negative pressure, and washed 3 times with ice-cold Tris buffer (5 mL).
IC50 s were calculated from log-logit plots. Apparent Ki s were calculated from the equation, Ki = IC50 /[1+(L/Kd)] (4), where L is the concentration of radio ligand and Kd is its dissociation constant.

dopamine D-2 receptor = biological target: T1, dopamine D-2 receptor (Cavia porcellus, UniProt H0VE83); experiment: Dopamine Receptor Binding ([3H]spiperone, striatum membranes); set-up: species or system guinea pig
T1 construct: Membranes were prepared from guinea pig striatum; from tissue; host or cells: guinea pig striatum membranes
T1 sequence (H0VE83 1-446): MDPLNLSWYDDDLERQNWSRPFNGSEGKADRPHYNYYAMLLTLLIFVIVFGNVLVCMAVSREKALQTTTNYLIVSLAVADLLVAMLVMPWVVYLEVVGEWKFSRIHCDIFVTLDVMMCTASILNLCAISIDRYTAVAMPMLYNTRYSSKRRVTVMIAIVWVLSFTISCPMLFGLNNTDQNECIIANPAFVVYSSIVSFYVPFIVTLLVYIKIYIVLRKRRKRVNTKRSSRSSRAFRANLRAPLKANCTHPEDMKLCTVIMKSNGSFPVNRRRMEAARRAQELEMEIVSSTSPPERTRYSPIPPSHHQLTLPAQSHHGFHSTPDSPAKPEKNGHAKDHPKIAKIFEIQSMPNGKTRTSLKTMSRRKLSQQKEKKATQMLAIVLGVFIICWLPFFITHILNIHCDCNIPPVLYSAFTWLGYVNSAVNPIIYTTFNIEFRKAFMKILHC
Experimental: as §1
Membranes were prepared from guinea pig striatum by the method described for sigma receptor binding. The membranes were then resuspended in 50 mM Tris HCl (9 mL per brain).
Nonspecific binding was measured in the presence of 100 nM (+)-butaclamol.After 15 minutes of incubation at 37° C., samples were filtered rapidly through Whatman GF/C glass filters under negative pressure, and washed three times with ice-cold binding buffer (5 mL).
IC50 s were calculated from log-logit plots.

[1] = Isolation-Induced Aggression in Mice; format: in vivo, Male Balb/c mice; settings: oral; for ED50: Mus musculus, 0.25 h, 15 min after dosing, isolated male Balb/c mice, read-out: Inhibition of Isolation-induced Aggression ED50; for inhibiting isolation-induced aggressive behavior (in words): mice, summary of Table 5
Experimental: Male Balb/c mice (Charles River) were used. […] Isolated mice failing to consistently attack an intruder were eliminated from the colony. Drug testing was carried out by treating the isolated mice with test drugs or standards. Fifteen minutes after dosing with test drugs by the oral route, one isolated mouse was removed from its home cage and placed in the home cage of another isolate. Scoring was a yes or no response for each pair. A maximum of 3 minutes was allowed for an attack and the pair was separated immediately upon an attack. Selection of home cage and intruder mice was randomized for each test. Mice were treated and tested twice a week with at least a 2 day washout period between treatments.

[2] = 0.15 nM [3H]spiperone, guinea pig striatum membranes, pH 7.7, 15 min, 37° C., read-out: DOPAMINE D-2 receptor binding Ki

Q: Which Ki (sigma receptor) does the source give for `C(=C\c1ccccc1)/COCC1CCN(CC2CC2)CC1` [Example 23] here?
A: Its Ki is 0.001 to 0.03 µM.

Q: What about the Ki (dopamine D-2 receptor; [2]) of the same molecule?
A: The Ki was greater than 0.5 µM.

Q: With `O=C(CCCN1CCC(O)(c2ccc(Cl)cc2)CC1)c1ccc(F)cc1` [Haloperidol, reference compound] as the molecule, how does the ED50 [1] read?
A: Its ED50 is less than 10 mg/kg.

Q: And the “inhibiting isolation-induced aggressive behavior (in words)” value [1]?
A: Its value is “effective”.

Q: With `C(COCC1CCN(Cc2ccccc2)CC1)=C(c1ccccc1)c1ccccc1` [Example 34] as the molecule, how does the Ki (sigma receptor) read?
A: The Ki was 0.001 to 0.03 µM.

Q: What about the Ki (dopamine D-2 receptor) of the same molecule?
A: The Ki was greater than 0.5 µM.

Q: With `C(=C\c1ccccc1)/COC1CCN(Cc2ccccc2)CC1` [Example 31] as the molecule, how does the Ki (sigma receptor) read?
A: Its Ki is 0.001 to 0.03 µM.

Q: And the Ki (dopamine D-2 receptor; [2])?
A: Its Ki is greater than 0.5 µM.

Q: Which results are given for `C(=C\c1ccccc1)/COCC1CCN(Cc2cccc3ccccc23)CC1` [Example 33]?
A: Ki (sigma receptor): 0.031 to 0.1 µM; Ki (dopamine D-2 receptor; [2]): > 0.5 µM

Q: What does the source list for `C(=C\c1ccccc1)/COCCC1CCCCN1Cc1ccccc1` (centres unmarked) [Example 24]?
A: Ki (sigma receptor): 0.001 to 0.03 µM; Ki (dopamine D-2 receptor; [2]): > 0.5 µM

Q: Which Ki (sigma receptor) does the source give for `C(=C\c1ccccc1)/COCC1CCCCN1Cc1ccccc1` (centres unmarked) [Example 28] here?
A: Its Ki is 0.001 to 0.03 µM.

Q: What about the Ki (dopamine D-2 receptor; [2]) of the same molecule?
A: Its Ki is greater than 0.5 µM.

Q: Which Ki (sigma receptor) does the source give for `C(=C/c1ccccc1)/COCCC1CCN(Cc2ccccc2)CC1` [Example 42, (Z)-1-Benzyl-4[(3-phenyl-2-propenyloxy)ethyl]piperidine] here?
A: Its Ki is 0.031 to 0.1 µM.

Q: What about the Ki (dopamine D-2 receptor; [2]) of the same molecule?
A: The Ki was greater than 0.5 µM.

Q: Which results are given for `C(#Cc1ccccc1)COCCC1CCN(CCc2ccccc2)CC1` [Example 39, 1-Phenethyl-4-(3-phenyl-2-propynyloxy)ethyl] piperidine, hydrochloride salt]?
A: Ki (sigma receptor): 0.001 to 0.03 µM; Ki (dopamine D-2 receptor; [2]): 0.101 to 0.5 µM

Q: Which Ki (sigma receptor) does the source give for `C(=C\c1ccccc1)/COC1CCN(Cc2ccccc2)C1` (centres unmarked) [Example 32] here?
A: Its Ki is 0.001 to 0.03 µM.

Q: What about the Ki (dopamine D-2 receptor; [2]) of the same molecule?
A: Its Ki is greater than 0.5 µM.

Q: Which results are given for `C(=C\c1ccccc1)/COC[C@@H]1CCCN1Cc1ccccc1` [Example 38]?
A: Ki (sigma receptor): 0.001 to 0.03 µM; Ki (dopamine D-2 receptor; [2]): > 0.5 µM

Q: With `C(=C\c1ccccc1)/COCC1CCCN(Cc2ccccc2)C1` (centres unmarked) [Example 27] as the molecule, how does the Ki (sigma receptor) read?
A: The Ki was 0.001 to 0.03 µM.

Q: What about the Ki (dopamine D-2 receptor; [2]) of the same molecule?
A: The Ki was greater than 0.5 µM.

Q: Which Ki (sigma receptor) does the source give for `C(=C\c1ccccc1)/COCCC1CCN(Cc2ccccc2)CC1` [Example 41, (E)-1Benzyl-4-[(3-phenyl-2-propenyloxy)lethyl]piperidine, maleic acid salt] here?
A: Its Ki is 0.001 to 0.03 µM.

Q: What about the Ki (dopamine D-2 receptor; [2]) of the same molecule?
A: The Ki was greater than 0.5 µM.

Q: Which Ki (sigma receptor) does the source give for `CCCCCCN1CCC(COC/C=C/c2ccccc2)CC1` [Example 36] here?
A: Its Ki is 0.001 to 0.03 µM.

Q: And the Ki (dopamine D-2 receptor; [2])?
A: Its Ki is greater than 0.5 µM.

Q: Which Ki (sigma receptor) does the source give for `C(=C\c1ccccc1)/COCC1CCN(Cc2ccc3ccccc3c2)CC1` [Example 26] here?
A: The Ki was 0.001 to 0.03 µM.

Q: And the Ki (dopamine D-2 receptor; [2])?
A: The Ki was greater than 0.5 µM.

Q: For `C(=C\c1ccccc1)/COC[C@H]1CCCN1Cc1ccccc1` [Example 37], which Ki (sigma receptor) is on record?
A: Its Ki is 0.001 to 0.03 µM.

Q: And the Ki (dopamine D-2 receptor; [2])?
A: Its Ki is greater than 0.5 µM.

Q: Which Ki (sigma receptor) does the source give for `C(#Cc1ccccc1)COCCC1CCN(Cc2ccccc2)CC1` [Example 40] here?
A: The Ki was 0.001 to 0.03 µM.

Q: What about the Ki (dopamine D-2 receptor; [2]) of the same molecule?
A: The Ki was greater than 0.5 µM.

Q: With `CC(C)=CCN1CCC(COC/C=C/c2ccccc2)CC1` [Example 29] as the molecule, how does the Ki (sigma receptor) read?
A: The Ki was 0.001 to 0.03 µM.

Q: And the Ki (dopamine D-2 receptor; [2])?
A: The Ki was greater than 0.5 µM.

Q: For `FC(F)(F)c1ccc(/C=C/COCC2CCN(Cc3ccccc3)CC2)cc1` [Example 35, (E)-1-benzyl-4-{[3-(4-trifluoromethyl)phenyl-2-propenyloxy]methyl}piperidine, maleic acid salt], which Ki (sigma receptor) is on record?
A: The Ki was 0.001 to 0.03 µM.

Q: What about the Ki (dopamine D-2 receptor; [2]) of the same molecule?
A: Its Ki is greater than 0.5 µM.

Q: Which results are given for `C(=C\c1ccccc1)/COCC1CCN(CCCc2ccccc2)CC1` [Example 30, (E)-1-(3-phenyl)propyl-4-[(3-phenyl-2-propenyloxy)methyl]piperidine, hydrochloride salt]?
A: Ki (sigma receptor): 0.001 to 0.03 µM; Ki (dopamine D-2 receptor; [2]): > 0.5 µM

Q: What does the source list for `C(=C\c1ccccc1)/COCC1CCN(CCc2ccccc2)CC1` [Example 25, (E)-1-phenethyl-4-[(3-phenyl-2-propenyloxy)methyl] piperidine, hydrochloride salt]?
A: Ki (sigma receptor): 0.001 to 0.03 µM; Ki (dopamine D-2 receptor; [2]): 0.101 to 0.5 µM; ED50 [1]: 21 to 70 mg/kg; inhibiting isolation-induced aggressive behavior (in words) [1]: effective

Q: For `Fc1ccc(/C=C/COCC2CCN(Cc3ccccc3)CC2)cc1` [Example 22, (E)-1-benzyl-4-{[3-(4-fluoro)phenyl-2-propenyloxy]methyl} piperidine, hydrochloride salt], which Ki (sigma receptor) is on record?
A: Its Ki is 0.001 to 0.03 µM.

Q: And the Ki (dopamine D-2 receptor; [2])?
A: Its Ki is greater than 0.5 µM.

Q: For `C(=C\c1ccccc1)/COCC1CCN(Cc2ccccc2)CC1.Cl` [Example 21, (E)-1-Benzyl-4-[(3-phenyl-2-propenyloxy)methyl]piperidine hydrochloride], which Ki (sigma receptor) is on record?
A: Its Ki is 0.001 to 0.03 µM.

Q: And the Ki (dopamine D-2 receptor; [2])?
A: The Ki was greater than 0.5 µM.

Q: What about the ED50 [1] of the same molecule?
A: Its ED50 is 21 to 70 mg/kg.

Q: What about the “inhibiting isolation-induced aggressive behavior (in words)” value [1] of the same molecule?
A: Its value is “effective”.
